The values that follow come from patent US20220073613A1, “ACTIVATABLE MASKED ANTI-CTLA4 BINDING PROTEINS” (Xilio Development, Inc., priority 2018, published 2022).

Entries after “also recorded” stand apart in the source; their conditions may differ.

One experiment has as its system 9D9 antibody. Nature of the experiment: Surface Plasmon Resonance of masking peptide binding to 9D9 antibody. The conditions noted are these: SPR, reference channel. As for the experimental part:
FIGS. 1A and 1B is a series of graphs showing in vitro analyses of anti-CTLA4 antibody occlusion by a masking peptide. Surface plasmon resonance (SPR) was performed to examine A) kinetics and B) affinity between 9D9 antibody (ligand) and masking peptide […] (analyte). Analytes were run in increasing concentrations of 2-fold serial dilutions from 0.1 to 50 μM at 37° C. Reference-subtracted response was plotted. SPR was performed three times and representative traces from one experiment are shown.
Surface Plasmon Resonance was performed on a GE Biacore T200 instrument at 37° C. The 9D9 antibody and isotype control (reference channel) were coupled at 100 RU immobilization level to CM5 chip (GE Healthcare). Peptides were synthesized and diluted into HBS-EP+ running buffer (GE Healthcare). The binding data were analyzed using Biacore Evaluation Software, version 3.0.

A further experiment concerns NAT conditioned media. Nature of the experiment: AMSP-MS kinetic analysis of AK10 peptides, NAT. The experiment is classed as biochemical, human. Here is the method:
(§1) Ten sequences (AK10) shown in Table 19 were analyzed via AMSP-MS. These sequences were slightly modified from the original sequences to generate mass spectrometry-compatible peptides (in some cases adding basic residues to add positive charge) and spacing residues (GG) to produce longer ˜14-mer peptides. The peptides were prepared at a 500 nM final concentration in the AMSP-MS reaction. The AK10 library was also separately analyzed by LC-MS/MS for chemical validation of the peptide species. The AMSP-MS analysis was performed under standard substrate specificity profiling conditions, sampling time points during the reaction incubation at 0, 15, 60, 240 and 1200 min. Peptides were quantified by mass spectrometric label-free quantitation from the MS1 precursor ion peak areas for each peptide species. Enzyme progress curves were modeled in GraphPad Prism software v 8.0 and data were fitted using non-linear least squares fitting to the first order kinetic equation: where Y=percent product formation, Kobs is the observed rate, and t=time. In Michaelis-Menten kinetics, the observed rate Kobs is a function of the enzyme concentration and catalytic efficiency (kcat/KM). In this analysis of an enzyme mixture, Kobs was used to rank product cleavages.

The next experiment concerns MC38 conditioned media. In words: AMSP-MS kinetic analysis of AK10 peptides, MC38. It is filed as biochemical, mouse. The conditions noted are these: MC38 serum-free conditioned media. As for the experimental part: as §1
A further experiment concerns tumor conditioned media. Nature of the experiment: AMSP-MS kinetic analysis of AK10 peptides, patient tumor. It is filed as biochemical, human. As for the experimental part:
as §1

For a further experiment, the system named is MB49 tumors. In words: MB49 murine bladder tumor model, efficacy and pharmacodynamics. Also on record: species or system C57/BL6-huCTLA4 mice. The conditions noted are these: mouse, in vivo. As for the experimental part:
Efficacy and pharmacodynamics (PD) of anti-CTLA4 antibodies were assessed using the MB49 murine bladder tumor model. Efficacy was assessed by administering each test antibody (RSV-m control antibody, ipilimumab, Antibody 2-6, Antibody 2-14, and Antibody 2-15) and then assessing tumor volume and body weight. The anti-RSV control antibody contains S239D and I332E mutations (RSV-m control antibody). Peripheral immunophenotyping was also carried out on day 5, which assessed the percentage of CD4+Ki67+ cells and the percentage of CD4+ICOS+ cells in the peripheral blood on day 5 following administration. As used herein, dosing in mg/kg is also referred to as “mpk.” MB49 cells were inoculated subcutaneously into C57/BL6-huCTLA4 mice. Treatment started when the tumors reached approximately 350 mm^3. […]
Pharmacodynamics is assessed by administering antibody to each of five cohorts of mice, with dosing (mg/kg) as shown in Table 16. Immunophenotyping among other readouts are performed in the tumor, liver, spleen, and blood. T cells are assessed by measuring Foxp3+CD25+ cells as a percentage of CD4+ cells, and CD8+ cells are measured as a percentage of CD45+ cells. Cleavage and drug levels in tumors, liver, kidney, spleen, and plasma is also assessed.

On to CNLIVEGHC, for which, in the experiment with 9D9 antibody, the “binding to isotype control antibody” value is reported as “did not bind”.

Regarding LSGRSNAMPYDLYHP [AK-09], the “ranking as substrate (relative efficiency)” value was “better performing substrates” in the experiment on NAT conditioned media and “best substrates” in the experiment on MC38 conditioned media.

On to MPYDLYHPRQARVVG [AK-10], for which the “ranking as substrate (relative efficiency)” value in the experiment with NAT conditioned media is reported as “better performing substrates; also recorded: most efficient NAT substrate”; with MC38 conditioned media it was “best substrates”.

Regarding RGGDSGGFMLTGGK [AK-05], in the experiment with NAT conditioned media, the “ranking as substrate (relative efficiency)” value is “weaker substrates”.

As to RGGMPYDLYHPGGK [AK-04], the “ranking as substrate (relative efficiency)” value with NAT conditioned media is “better performing substrates”; with tumor conditioned media it was “top cleavages”.

With RGGVPLSLYSGGGK [AK-03], in the experiment on tumor conditioned media, the “ranking as substrate (relative efficiency)” value is listed as “top cleavages”.

Consider ipilimumab [reference compound], for which, in the experiment with MB49 tumors, the “Regulatory T cell depletion and CD8+ T cell activation in the tumor microenvironment” value is given as “not”.
